The values below come from ChEMBL document CHEMBL5620374, “Synthesis and bioevaluation of novel stilbene-based derivatives as tubulin/HDAC dual-target inhibitors with potent antitumor activities in vitro and in vivo” (Eur J Med Chem, 2023).

By pIC50 is commonly meant the IC50 on a negative log10 scale, so that one unit is a factor of ten. Broadly, the IC50 is the concentration needed to halve the response being measured. Low readings indicate higher potency, high ones lower potency.

Data set [1] can be described thus: Toxicity in ICR mouse allografted with mouse H22 cells assessed as toxic sign in lung at 10 to 20 mg/kg, iv qd for 17 days consecutively by H and E staining based analysis. In kind it is organism-based. Particulars: in vivo, dose 10-20 mg/kg, time 17 day.
For data set [2], the system named is K562. Description: Induction of cell cycle arrest at G2 phase in human K562 cells at 4 nM incubated for 48 hrs by PI staining based flow cytometry (Rvb =15.36 +/- 0.46 %). In kind it is functional. For orientation: In flow cytometry, cells or beads pass a laser one at a time.
Data set [3] relates to K562. Description: Induction of cell cycle arrest at G2 phase in human K562 cells at 2 nM incubated for 48 hrs by PI staining based flow cytometry (Rvb =15.36 +/- 0.46 %). Type of data set: functional.
Data set [4] deals with K562. Description: Induction of cell cycle arrest at G1 phase in human K562 cells at 2 nM incubated for 48 hrs by PI staining based flow cytometry (reference value: 62.08 +/- 0.40 %). In kind it is functional.
The subject of data set [5] is K562. The experiment in a line: Induction of cell cycle arrest at S phase in human K562 cells at 2 nM incubated for 48 hrs by PI staining based flow cytometry (reference value: 22.56 +/- 0.47 %). Type of data set: functional.
For data set [6], the system named is K562. The experiment in a line: Induction of apoptosis in human K562 cells assessed as decrease in Bcl-xL level incubated for 24 hrs by Western blot analysis. In kind it is functional, cell-based. The conditions noted are these: dose 2-8 nM. In general terms: Immunoblotting shows a protein as a band on a membrane.
Data set [7] addresses Histone deacetylase 2 (Homo sapiens, UniProt Q92769). Description: Inhibition of HDAC2 derived from human HeLa cell extract using Ac-Leu-Gly-Lys (Ac)-AMC as substrate by fluorescence based assay.
Data set [8] concerns the target T1, Protein deacetylase HDAC6 (Homo sapiens) (UniProt Q9UBN7).
T1 sequence (whole entry): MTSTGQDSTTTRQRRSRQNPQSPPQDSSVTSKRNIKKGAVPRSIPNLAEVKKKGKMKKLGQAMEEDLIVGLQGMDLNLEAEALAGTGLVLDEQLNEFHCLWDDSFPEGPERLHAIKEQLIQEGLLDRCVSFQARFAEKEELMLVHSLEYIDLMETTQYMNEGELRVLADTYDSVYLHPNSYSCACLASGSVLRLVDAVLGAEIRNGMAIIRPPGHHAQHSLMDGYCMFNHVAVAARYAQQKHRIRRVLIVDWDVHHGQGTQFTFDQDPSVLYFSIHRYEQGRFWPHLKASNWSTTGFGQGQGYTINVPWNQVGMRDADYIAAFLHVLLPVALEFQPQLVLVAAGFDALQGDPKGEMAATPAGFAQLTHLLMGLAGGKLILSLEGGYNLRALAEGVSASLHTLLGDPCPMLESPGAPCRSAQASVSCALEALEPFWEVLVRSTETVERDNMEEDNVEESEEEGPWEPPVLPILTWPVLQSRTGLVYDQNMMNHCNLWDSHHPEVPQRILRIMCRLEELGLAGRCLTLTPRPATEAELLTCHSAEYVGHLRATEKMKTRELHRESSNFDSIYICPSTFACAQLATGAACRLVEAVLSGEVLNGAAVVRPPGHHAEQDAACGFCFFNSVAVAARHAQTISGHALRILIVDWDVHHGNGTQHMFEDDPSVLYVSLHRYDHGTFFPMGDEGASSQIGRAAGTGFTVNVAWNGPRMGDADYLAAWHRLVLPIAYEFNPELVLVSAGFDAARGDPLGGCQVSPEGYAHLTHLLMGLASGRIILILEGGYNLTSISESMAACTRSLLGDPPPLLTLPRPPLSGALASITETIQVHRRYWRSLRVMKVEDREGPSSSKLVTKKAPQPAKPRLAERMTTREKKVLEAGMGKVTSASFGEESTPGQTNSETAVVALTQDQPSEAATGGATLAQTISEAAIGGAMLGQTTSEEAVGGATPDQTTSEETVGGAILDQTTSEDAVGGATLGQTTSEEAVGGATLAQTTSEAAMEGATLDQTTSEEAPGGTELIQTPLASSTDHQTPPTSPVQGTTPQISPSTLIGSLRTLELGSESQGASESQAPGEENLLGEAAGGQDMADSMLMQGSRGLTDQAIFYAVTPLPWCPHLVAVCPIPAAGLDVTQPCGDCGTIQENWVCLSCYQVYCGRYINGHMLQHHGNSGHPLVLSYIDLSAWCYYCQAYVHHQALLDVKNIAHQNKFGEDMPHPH
Description: Inhibition of HDAC6 in human K562 cells assessed as increase in Acetyl-alpha-tubulin level at 0.01 to 1 uM incubated for 24 hrs by Western blot analysis. In kind it is cell-based. The conditions noted are these: dose 0.01-1 µM.

A short description of data set [9]: Toxicity in ICR mouse allografted with mouse H22 cells assessed as toxic sign in kidney at 10 to 20 mg/kg, iv qd for 17 days consecutively by H and E staining based analysis. Type of data set: organism-based. Particulars: in vivo, dose 10-20 mg/kg, time 17 day.
For data set [10], the system named is A549. Description: cells. The conditions noted are these: Homo sapiens, A549, 72 h.
Description: Antiproliferative activity against human A549 cells incubated for 72 hrs by MTT assay
Data set [11] concerns H22. The experiment in a line: Antiproliferative activity against mouse H22 cells incubated for 72 hrs by MTT assay. In kind it is functional, cell-based. The conditions noted are these: H22, 72 h. (In general: Tetrazolium dyes change colour on reduction, which living cells bring about.)
A short description of data set [12]: Antiproliferative activity against human HFL1 cells incubated for 72 hrs by MTT assay. In kind it is toxicity, cell-based.
For data set [13], the system named is K562. Description: Induction of apoptosis in human K562 cells assessed as viable cells at 4 nM incubated for 48 hrs by Annexin V/PI staining based flow cytometry (reference value: 92.52 +/- 0.34 %). In kind it is functional. Particulars: read-out: Activity.
A short description of data set [14]: Toxicity in ICR mouse allografted with mouse H22 cells assessed as toxic sign in heart at 10 to 20 mg/kg, iv qd for 17 days consecutively by H and E staining based analysis. In kind it is organism-based. The conditions noted are these: in vivo, dose 10-20 mg/kg, time 17 day.
The test system of data set [15] is K562. The experiment in a line: Induction of apoptosis in human K562 cells assessed as early apoptotic cells at 2 nM incubated for 48 hrs by Annexin V/PI staining based flow cytometry (reference value: 1.55 +/- 0.21 %). Type of data set: functional.
Data set [16] relates to K562. The experiment in a line: Induction of ROS generation in human K562 cells assessed as DCF-positive cells at 2 nM incubated for 48 hrs by DCF-DA probe based flow cytometry (reference value: 3.87 %). Type of data set: functional.
Data set [17] deals with MCF7. Description: cells. The conditions noted are these: Homo sapiens, MCF7, 72 h.
Description: Antiproliferative activity against human MCF7 cells incubated for 72 hrs by MTT assay
Data set [18] relates to MDA-MB-231. Description: Inhibition of cell […] in human MDA-MB-231 cells incubated for 24 hrs by wound healing assay. In kind it is functional, cell-based. Particulars: dose 2-8 nM.

pIC50: −log10 of the molar value. The source made the active and inactive calls. No cut-off for these calls is given here.

Sequence of Histone deacetylase 2 (Q92769 whole entry): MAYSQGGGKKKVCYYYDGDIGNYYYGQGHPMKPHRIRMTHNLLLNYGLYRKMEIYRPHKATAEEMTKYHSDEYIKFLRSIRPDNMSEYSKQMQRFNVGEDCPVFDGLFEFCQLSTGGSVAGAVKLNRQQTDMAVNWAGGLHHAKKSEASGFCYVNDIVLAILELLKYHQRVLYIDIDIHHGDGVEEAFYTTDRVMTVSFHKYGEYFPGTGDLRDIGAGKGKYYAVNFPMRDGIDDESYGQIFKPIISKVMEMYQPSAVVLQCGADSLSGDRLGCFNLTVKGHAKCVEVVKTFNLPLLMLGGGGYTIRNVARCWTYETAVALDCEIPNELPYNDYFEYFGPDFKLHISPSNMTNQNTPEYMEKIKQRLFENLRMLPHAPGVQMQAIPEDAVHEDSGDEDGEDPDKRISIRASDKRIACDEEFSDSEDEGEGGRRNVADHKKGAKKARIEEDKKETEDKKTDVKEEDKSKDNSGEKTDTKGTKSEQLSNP

Consider `C=C(c1ccc(OC)c(OC(F)C(=O)NO)c1)c1cc(C)nc2ccccc12` (stereo not drawn), for which the Activity result in data set [1] is “Non-Toxic”; in [2] it was 23.38%; in [3], 20.48%; in data set [4] it was 56.87%; in data set [5] it was 22.65%; in data set [6], “Dose-Dependent Effect”. Further, the Activity result in [9] is on record as “Non-Toxic”; in [14] it was “Non-Toxic”; in data set [15], 14.52%; in data set [16] it was 16.44%. The negative-log IC50 (pIC50) was 6.23 in data set [7], 7.77 in data set [10], 8.10 in data set [11] and 7.44 in [17]. Also, the inhibition entry in data set [8] is “Active”. The compound further showed a half-maximal inhibitory concentration (IC50) at 72 h in data set [12] of 230 nM. Also, the viability at 0.004 µM in [13] was found to be 66.6%. For the same compound, the inhibition entry in [18] is “Dose-Dependent Effect”.
